Measured values taken from patent US9956157B2, “Composition containing fucosterol for skin whitening or moisturizing” (INDUSTRY-ACADEMIC COOPERATION FOUNDATION, YONSEI UNIVERSITY, priority 2014, dated 2018).

How the values were obtained:
Format in all cases: cell-based
transglutaminase = test: Transglutaminase protein expression (western blot) in HaCaT human keratinocytes; settings: HaCaT cells, fucosterol 5, 10, 20 μM, 24 hrs, FIG. 10
Protocol: (§1) HaCaT human keratinocytes were incubated in a Dulbecco's Modified Eagle's Media (DMEM) medium including 10% fetal bovine serum and then put in a 6-well plate with 2×10^5 cell/ml (the final volume of 3 ml). After being incubated for 24 hrs, the medium was removed and fucosterol which was dissolved in the DMEM medium was treated at 5, 10, and 20 μM concentrations, respectively. After 24 hrs, the HaCaT human keratinocytes were lysed with a NP40 buffer solution including proteinase inhibitor cocktail. The protein amount extracted from the HaCaT human keratinocytes was quantified by using a Bradford method. The sample was boiled for 5 min and then the same amount of protein ([…]) was isolated by electrophoresis with 10% SDS-PAGE. The isolated proteins after electrophoresis were transferred to a nitrocellular membrane and western blot was performed. A primary antibody was reacted and the nitrocellular membrane was washed three times by using Tris-buffer saline tween20 (TBST) for 10 min. In this case, the kind and the dilution of the primary antibody used in the present invention is 1:1000. In a secondary antibody reaction, a secondary antibody was put in the membrane performing the primary antibody reaction and reacted for 2 hrs at room temperature. In this case, a dilution of the secondary antibody was 1:5000. […]

[1] = tested on: HaCaT human keratinocytes; test: Cornified envelope formation in HaCaT human keratinocytes (absorbance 340 nm); settings: HaCaT cells, fucosterol 5, 10, 20 μM, 96 hrs, p<0.05, FIG. 8
Protocol: HaCaT human keratinocytes were incubated in a Dulbecco's Modified Eagle's Media (DMEM) medium including 10% fetal bovine serum and then put in a 6-well plate with 2×10^5 cell/ml (the final volume of 3 ml). After being incubated for 24 hrs, the medium was removed and fucosterol which was dissolved in the DMEM medium was treated at 5, 10, and 20 μM concentrations, respectively. After incubation for 96 hrs, the incubated medium was removed from the 6-well plate to collect a cell pellet, and the cell pellet was transferred to a 1.5 mL tube and centrifuged for 10 min at 10,000 rpm to remove a supernatant. The obtained pellet was added with a Tris buffer solution including 2% sodium dodecyl sulfate (SDS) and 20 mM dithiothreitol (DTT) and boiled, and the absorbance was measured at 340 nm to evaluate the effect on cornified envelope formation. According to Equation 1 below, the formation degree of the cornified envelope compared with the control group was calculated and the result was illustrated in FIG. 8. Cornified envelope formation amount (%) compared with control group=absorbance of each test material/absorbance of control group×100 […]

[2] = tested on: TRP-1 (tyrosinase-related protein 1); test: TRP-1 protein expression (western blot) in B16F10 melanoma cells; settings: 200 nM α-MSH, fucosterol 5 and 20 μM, 24 hrs, FIG. 6
Protocol: B16F10 melanoma cells were incubated in a DMEM medium including 10% fetal bovine serum and then added in a 6-well plate with 2.5×10^5 cell/mL (the final volume of 3 mL). After being incubated for 24 hrs, the medium was removed and fucosterol which was dissolved in the DMEM medium including 200 nM α-MSH was treated at 5 and 20 μM of concentrations, respectively. The cells after 24 hrs were lysed with a NP40 buffer solution including proteinase inhibitor cocktail and the protein amount extracted from the cells was quantified by using a Bradford reagent. The quantified protein was boiled for 5 min and isolated by electrophoresis with 10% SDS-PAGE to transfer the isolated proteins to a nitrocellular membrane. A primary antibody of […] and […] was diluted in 2.5% bovine serum albumin at a ratio of 1:1000 and reacted with the protein transferred to the nitrocellular membrane for 20 hrs at room temperature. The primary antibody was reacted and then the nitrocellular membrane was washed three times by using the TBST for 10 min. […] As the measured result, the protein expression of […] and […] was verified and it was shown that the loading amount of the protein was constant by α-tubulin.

caspase 14 = test: Caspase 14 protein expression (western blot) in HaCaT human keratinocytes; settings: HaCaT cells, fucosterol 5, 10, 20 μM, 24 hrs, FIG. 12
Protocol: as §1

For `C/C=C(\CC[C@@H](C)[C@H]1CC[C@H]2[C@@H]3CC=C4C[C@@H](O)CC[C@]4(C)[C@H]3CC[C@]12C)C(C)C` [fucosterol], the “protein expression of transglutaminase” value (transglutaminase) was “increased”, the cornified envelope formation [1] was “excellent cornified envelope formation effect” and the “protein expression of TRP-1” value [2] was “reduced”. The “protein expression of caspase 14” value (caspase 14) was “increased”.
